Assay results as given in patent US10820591B2, “Substituted sulfonyl amides for controlling animal pests” (Bayer Aktiengesellschaft, priority 2016, dated 2020).

Each compound was assayed on Meloidogyne incognita (assay: Meloidogyne incognita test (sand, lettuce, gall formation)). Settings: Meloidogyne incognita, 336 h, 20 ppm, after 14 days; read-out: nematicidal efficacy (formation of galls).
Type: in vivo
Procedure, shortened: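 Vessels held sand, diluted compound solution, M. incognita egg/larvae suspension and lettuce seeds, and the plants grew for 14 days. Efficacy in % came from root gall formation: 100% means no galls, 0% means galls equal to the untreated control.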
Work on `COc1ccc(F)c(S(=O)(=O)NC(=O)c2cn(-c3cc(Cl)cc(Cl)c3)c(C)n2)c1` [I-367] yielded a pest or weed control at 20 ppm of 100%.
`COc1ccc(Br)c(S(=O)(=O)NC(=O)c2cn(-c3cc(Cl)cc(Cl)c3)c(C)n2)c1` [I-368] was tested, and the pest or weed control at 20 ppm was 90%.
With `COc1ccc(F)c(S(=O)(=O)NC(=O)c2cn(-c3cc(F)cc(Cl)c3)c(C)n2)c1` [I-369] the pest or weed control at 20 ppm was 100%.
Work on `COc1ccc(Br)c(S(=O)(=O)NC(=O)c2cn(-c3cc(F)cc(Cl)c3)c(C)n2)c1` [I-370] yielded a pest or weed control at 20 ppm of 70%.
In the case of `COc1ccc(F)c(S(=O)(=O)NC(=O)c2cn(-c3cc(F)cc(F)c3)c(C)n2)c1` [I-371], the pest or weed control at 20 ppm is reported as 90%.
For `CC(=O)c1ccc(Cl)c(S(=O)(=O)NC(=O)c2cn(-c3cc(Cl)cc(Cl)c3)c(C)n2)c1` [I-372], the pest or weed control at 20 ppm was 100%.
`CSc1cccc(Cl)c1S(=O)(=O)NC(=O)c1cn(-c2cc(Cl)cc(Cl)c2)c(C)n1` [I-374] gave a pest or weed control at 20 ppm of 100%.
For `CCSc1cccc(Cl)c1S(=O)(=O)NC(=O)c1cn(-c2cc(Cl)cc(Cl)c2)c(C)n1` [I-375], the pest or weed control at 20 ppm was 100%.
In the case of `Cc1nc(C(=O)NS(=O)(=O)c2c(Cl)cccc2SC(C)C)cn1-c1cc(Cl)cc(Cl)c1` [I-376], the pest or weed control at 20 ppm is reported as 90%.
In the case of `Cc1nc(C(=O)NS(=O)(=O)c2c(F)cccc2NC(C)C)cn1-c1cc(Cl)cc(Cl)c1` [I-377], the pest or weed control at 20 ppm is reported as 90%.
`Cc1nc(C(=O)NS(=O)(=O)c2c(F)cccc2Cl)cn1-c1cc(Cl)cc(Cl)c1` [I-378] showed a pest or weed control at 20 ppm of 100%.
In the case of `Cc1nc(C(=O)NS(=O)(=O)c2c(F)cccc2NC2CC2)cn1-c1cc(Cl)cc(Cl)c1` [I-379], the pest or weed control at 20 ppm is reported as 100%.
`Cc1nc(C(=O)NS(=O)(=O)c2c(F)cccc2NC2CC2)cn1-c1cc(F)cc(Cl)c1` [I-380] showed a pest or weed control at 20 ppm of 100%.
`Cc1nc(C(=O)NS(=O)(=O)c2c(F)cccc2NC(C)C)cn1-c1cc(F)cc(Cl)c1` [I-381] showed a pest or weed control at 20 ppm of 100%.
Compound `CSc1cccc(Cl)c1S(=O)(=O)NC(=O)c1cn(-c2cc(F)cc(Cl)c2)c(C)n1` [I-382] has a pest or weed control at 20 ppm of 100%.
With `CCSc1cccc(Cl)c1S(=O)(=O)NC(=O)c1cn(-c2cc(F)cc(Cl)c2)c(C)n1` [I-383] the pest or weed control at 20 ppm was 100%.
`Cc1nc(C(=O)NS(=O)(=O)c2c(Cl)cccc2SC(C)C)cn1-c1cc(F)cc(Cl)c1` [I-384] gave a pest or weed control at 20 ppm of 100%.
`CSc1cccc(Cl)c1S(=O)(=O)NC(=O)c1cn(-c2cc(F)cc(F)c2)c(C)n1` [I-386] was tested, and the pest or weed control at 20 ppm was 100%.
With `Cc1nc(C(=O)NS(=O)(=O)c2c(Cl)cccc2SC(C)C)cn1-c1cc(F)cc(F)c1` [I-388] the pest or weed control at 20 ppm was 100%.
Work on `Cc1nc(C(=O)NS(=O)(=O)c2c(F)cccc2NC2CC2)cn1-c1cc(F)cc(F)c1` [I-389] yielded a pest or weed control at 20 ppm of 100%.
`CSc1cccc(Cl)c1S(=O)(=O)NC(=O)c1cn(-c2cc(Cl)cc(Cl)c2)cn1` [I-390] gave a pest or weed control at 20 ppm of 100%.
Compound `O=C(NS(=O)(=O)c1c(F)cccc1NC1CC1)c1cn(-c2cc(Cl)cc(Cl)c2)cn1` [I-393] has a pest or weed control at 20 ppm of 100%.
`CCc1nc(C(=O)NS(=O)(=O)c2cc(OC)ccc2Cl)cn1-c1cc(F)cc(F)c1` [I-394] was tested, and the pest or weed control at 20 ppm was 100%.
`COc1ccc(Cl)c(S(=O)(=O)NC(=O)c2cn(-c3cc(F)cc(F)c3)c(C(C)C)n2)c1` [I-395] showed a pest or weed control at 20 ppm of 90%.
`Cc1nc(C(=O)NS(=O)(=O)c2c(F)cccc2Cl)cn1-c1cc(F)cc(Cl)c1` [I-396] gave a pest or weed control at 20 ppm of 90%.
`Cc1nc(C(=O)NS(=O)(=O)c2c(F)cccc2Cl)cn1-c1cc(F)cc(F)c1` [I-397] was tested, and the pest or weed control at 20 ppm was 70%.
`CC(C)Sc1cccc(Cl)c1S(=O)(=O)NC(=O)c1cn(-c2cc(Cl)cc(Cl)c2)cn1` [I-398] was tested, and the pest or weed control at 20 ppm was 90%.
With `Cc1nc(C(=O)NS(=O)(=O)c2c(F)cccc2Cl)cn1-c1cc(Cl)cc(C(F)(F)F)c1` [I-399] the pest or weed control at 20 ppm was 90%.
`Cc1nc(C(=O)NS(=O)(=O)c2c(F)cccc2Cl)cn1-c1cc(F)cc(C(F)(F)F)c1` [I-400] was tested, and the pest or weed control at 20 ppm was 90%.
For `CCc1nc(C(=O)NS(=O)(=O)c2cc(OC)ccc2Cl)cn1-c1cc(Cl)cc(Cl)c1` [I-402], the pest or weed control at 20 ppm was 90%.
For `COc1ccc(Cl)c(S(=O)(=O)NC(=O)c2cn(-c3cc(Cl)cc(Cl)c3)c(C(C)C)n2)c1` [I-403], the pest or weed control at 20 ppm was 90%.
For `CCc1nc(C(=O)NS(=O)(=O)c2cc(OC)ccc2Cl)cn1-c1cc(F)cc(C(F)(F)F)c1` [I-404], the pest or weed control at 20 ppm was 90%.
`COc1ccc(Cl)c(S(=O)(=O)NC(=O)c2cn(-c3cc(F)cc(C(F)(F)F)c3)c(C(C)C)n2)c1` [I-405] showed a pest or weed control at 20 ppm of 100%.
Compound `CCc1nc(C(=O)NS(=O)(=O)c2cc(OC)ccc2Cl)cn1-c1cc(F)cc(Cl)c1` [I-406] has a pest or weed control at 20 ppm of 100%.
In the case of `CCc1nc(C(=O)NS(=O)(=O)c2cc(OC)ccc2Cl)cn1-c1cc(Cl)cc(C(F)(F)F)c1` [I-407], the pest or weed control at 20 ppm is reported as 100%.
`COc1ccc(Cl)c(S(=O)(=O)NC(=O)c2cn(-c3cc(F)cc(Cl)c3)c(C(C)C)n2)c1` [I-408] showed a pest or weed control at 20 ppm of 100%.
`Cc1nc(C(=O)NS(=O)(=O)C(C)C)cn1-c1cc(Cl)cc(Cl)c1` [I-409] showed a pest or weed control at 20 ppm of 100%.
For `COc1ccc(S(=O)(=O)NC(=O)c2cn(-c3cc(F)cc(F)c3)c(C)n2)cc1` [I-410], the pest or weed control at 20 ppm was 100%.
In the case of `COc1ccc(S(=O)(=O)NC(=O)c2cn(-c3cc(Cl)cc(Cl)c3)c(C)n2)cc1` [I-411], the pest or weed control at 20 ppm is reported as 100%.
`COc1ccc(Cl)c(S(=O)(=O)NC(=O)c2nc(C)n(-c3cc(Cl)cc(Cl)c3)c2F)c1` [I-413] gave a pest or weed control at 20 ppm of 100%.
For `O=C(NS(=O)(=O)c1ccccc1)c1ncn(-c2ccc(Cl)cc2)c1Cl` [I-414], the pest or weed control at 20 ppm was 100%.
Compound `COc1ccc(S(=O)(=O)NC(=O)c2ncn(-c3ccc(Cl)cc3)c2Cl)cc1` [I-415] has a pest or weed control at 20 ppm of 90%.
Work on `O=C(NS(=O)(=O)c1ccccc1Cl)c1ncn(-c2ccc(Cl)cc2)c1Cl` [I-416] yielded a pest or weed control at 20 ppm of 100%.
With `O=C(NS(=O)(=O)c1cccc(Cl)c1)c1ncn(-c2ccc(Cl)cc2)c1Cl` [I-417] the pest or weed control at 20 ppm was 100%.
In the case of `O=C(NS(=O)(=O)c1ccc(Cl)cc1)c1ncn(-c2ccc(Cl)cc2)c1Cl` [I-418], the pest or weed control at 20 ppm is reported as 100%.
With `COc1cccc(S(=O)(=O)NC(=O)c2ncn(-c3ccc(Cl)cc3)c2Cl)c1` [I-419] the pest or weed control at 20 ppm was 100%.
For `COc1ccccc1S(=O)(=O)NC(=O)c1ncn(-c2ccc(Cl)cc2)c1Cl` [I-420], the pest or weed control at 20 ppm was 100%.
In the case of `O=C(NS(=O)(=O)c1ccccc1)c1ncn(-c2ccc(C(F)(F)F)cc2)c1Cl` [I-421], the pest or weed control at 20 ppm is reported as 100%.
Work on `O=C(NS(=O)(=O)c1cccc(Cl)c1)c1ncn(-c2ccc(C(F)(F)F)cc2)c1Cl` [I-422] yielded a pest or weed control at 20 ppm of 100%.
Work on `O=C(NS(=O)(=O)c1ccccc1Cl)c1ncn(-c2ccc(C(F)(F)F)cc2)c1Cl` [I-423] yielded a pest or weed control at 20 ppm of 100%.
In the case of `COc1ccccc1S(=O)(=O)NC(=O)c1ncn(-c2ccc(C(F)(F)F)cc2)c1Cl` [I-424], the pest or weed control at 20 ppm is reported as 100%.
For `COc1cccc(S(=O)(=O)NC(=O)c2ncn(-c3ccc(C(F)(F)F)cc3)c2Cl)c1` [I-425], the pest or weed control at 20 ppm was 100%.
For `COc1ccc(S(=O)(=O)NC(=O)c2ncn(-c3ccc(C(F)(F)F)cc3)c2Cl)cc1` [I-426], the pest or weed control at 20 ppm was 90%.
`O=C(NS(=O)(=O)c1ccc(Cl)cc1)c1ncn(-c2ccccc2C(F)(F)F)c1Cl` [I-427] showed a pest or weed control at 20 ppm of 100%.
`O=C(NS(=O)(=O)c1cccc(Cl)c1)c1ncn(-c2ccccc2C(F)(F)F)c1Cl` [I-428] showed a pest or weed control at 20 ppm of 90%.
`COc1cccc(S(=O)(=O)NC(=O)c2ncn(-c3ccccc3C(F)(F)F)c2Cl)c1` [I-429] showed a pest or weed control at 20 ppm of 90%.
Compound `COc1ccc(S(=O)(=O)NC(=O)c2ncn(-c3ccccc3C(F)(F)F)c2Cl)cc1` [I-430] has a pest or weed control at 20 ppm of 90%.
Compound `O=C(NS(=O)(=O)c1ccc(Cl)cc1)c1ncn(-c2cccc(C(F)(F)F)c2)c1Cl` [I-431] has a pest or weed control at 20 ppm of 90%.
`O=C(NS(=O)(=O)c1cccc(Cl)c1)c1ncn(-c2cccc(C(F)(F)F)c2)c1Cl` [I-432] showed a pest or weed control at 20 ppm of 90%.
With `O=C(NS(=O)(=O)c1ccccc1Cl)c1ncn(-c2cccc(C(F)(F)F)c2)c1Cl` [I-433] the pest or weed control at 20 ppm was 100%.
`O=C(NS(=O)(=O)c1ccccc1)c1ncn(-c2cccc(C(F)(F)F)c2)c1Cl` [I-434] showed a pest or weed control at 20 ppm of 100%.
In the case of `COc1ccccc1S(=O)(=O)NC(=O)c1ncn(-c2cccc(C(F)(F)F)c2)c1Cl` [I-435], the pest or weed control at 20 ppm is reported as 100%.
Compound `COc1cccc(S(=O)(=O)NC(=O)c2ncn(-c3cccc(C(F)(F)F)c3)c2Cl)c1` [I-436] has a pest or weed control at 20 ppm of 100%.
In the case of `COc1ccc(S(=O)(=O)NC(=O)c2ncn(-c3cccc(C(F)(F)F)c3)c2Cl)cc1` [I-437], the pest or weed control at 20 ppm is reported as 90%.
Work on `COc1ccc(Cl)c(S(=O)(=O)NC(=O)c2cn(-c3cc(Cl)nc(Cl)c3)c(Cl)n2)c1` [I-439] yielded a pest or weed control at 20 ppm of 90%.
In the case of `O=C(NS(=O)(=O)c1ccccc1Cl)c1nc(Br)n(CCC(F)(F)F)c1Cl` [I-440], the pest or weed control at 20 ppm is reported as 100%.
With `COc1ccc(Cl)c(S(=O)(=O)NC(=O)c2cn(-c3cc(Cl)cc(Cl)c3)c(Br)n2)c1` [I-441] the pest or weed control at 20 ppm was 100%.
`COc1ccc(Cl)c(S(=O)(=O)NC(=O)c2nc(Br)n(-c3cc(Cl)cc(Cl)c3)c2Br)c1` [I-442] showed a pest or weed control at 20 ppm of 100%.
`COc1ccc(Cl)c(S(=O)(=O)NC(=O)c2cn(-c3cc(Cl)cc(Cl)c3)c(Cl)n2)c1` [I-443] gave a pest or weed control at 20 ppm of 100%.
For `O=C(NS(=O)(=O)c1ccccc1Cl)c1cn(-c2cc(Cl)cc(Cl)c2)c(Cl)n1` [I-444], the pest or weed control at 20 ppm was 100%.
With `CSc1nc(C(=O)NS(=O)(=O)c2ccccc2Cl)cn1CCC(F)(F)F` [I-445] the pest or weed control at 20 ppm was 90%.
Compound `CSc1nc(C(=O)NS(=O)(=O)c2ccccc2Cl)c(Cl)n1CCC(F)(F)F` [I-446] has a pest or weed control at 20 ppm of 90%.
Compound `O=C(NS(=O)(=O)c1ccccc1Cl)c1cc(-c2cc(Cl)cc(Cl)c2)n(CC(F)(F)F)n1` [I-447] has a pest or weed control at 20 ppm of 90%.
`COc1ccc(Cl)c(S(=O)(=O)NC(=O)c2cc(-c3cc(Cl)cc(Cl)c3)n(CC(F)(F)F)n2)c1` [I-448] gave a pest or weed control at 20 ppm of 100%.
In the case of `CCOc1ccc(Cl)c(S(=O)(=O)NC(=O)c2nc(Cl)n(CCC(F)(F)F)c2Cl)c1` [I-449], the pest or weed control at 20 ppm is reported as 100%.
`CC(C)Oc1ccc(Cl)c(S(=O)(=O)NC(=O)c2nc(Cl)n(CCC(F)(F)F)c2Cl)c1` [I-450] showed a pest or weed control at 20 ppm of 100%.
